Results published in patent US20240197700A1, “Methods and Compositions for Treating Lysosomal Storage Disorders” (Sanford Health, priority 2021, published 2024).
“Also recorded” adds a separate entry of the source. Blank lines part the entries; values can stand above or below the compound they belong to.

Key:
NCL PNCs = assay: LysoTracker signal in Batten disease primary neuronal cultures; format: cell-based, mouse
Method: Specific experimental details are included in figure legends. In general, after collection and preparation, MEFs and PNCs were dosed with vehicle or semaglutide (10 nM, 100 nM. or 1 μM) on DIV3 and DIV5. On DIV7, cells were exposed to the following dyes: Hoechst 33342 (1:1000 dilution), LysoTracker™ Red DND-99 (1:10,000 dilution), fixed. and imaged. Mice were injected three times per week with vehicle or semaglutide (2.571 μg/mouse, 25.71 μg/mouse) beginning at wean. Body weight was measured at 4, 6, 8, 12, and 16 weeks of age. At 16 weeks of age, Cln3^Δex7/8 mice along with age matched wildtype control mice were CO2 euthanized and intracardially perfused with PBS. Brains were collected and placed on a 1 mm sagittal brain block. Brains were sliced at the midline and 3 mm right of the midline. The 3 mm sagittal piece was flash frozen with −50° C. isopentane and then sectioned on a cryostat at 16 μm and placed on slides. For ASM measurements, slides were counterstained with DAPI. The other hemisphere was fixed in 4% PFA and sectioned at 50 microns on a vibratome. Immunohistochemistry was performed on free-floating sections. For SubC, GFAP, and CD68 immunolabeling, primary antibodies included mitochondrial anti-ATP synthase subunit C (Abcam, ab181243; 1:1000), anti-GFAP (Dako, Z0334; 1:5000), anti-CD68 (AbD Serotec, MCA1957; 1:2000), and secondary antibodies included anti-rabbit biotinylated (Vector Labs, BA-1000 1:1000) and anti-rat (Vector Labs, BA-9400 1:1000). Coverslips were mounted on slides using antifade-mounting media and were stored in the dark before imaging. ASM slides were imaged on a Nikon ECLIPSE™ Ni-E upright microscope with a CoolSNAP™ DYNO camera. Images were extracted from S1BF of the somatosensory cortex, CA3 of the hippocampus, and the VPM/VPL of the thalamus, with multiple images taken of multiple tissues from each animal. IHC slides were imaged and analyzed using an Aperio Digital Pathology Slide Scanner (AT2) and associated software. Images were extracted from the S1BF of the somatosensory cortex, the CA3 of the hippocampus, and the VPM/VPL of the thalamus.
In a further experiment, wild type (WT) and mutant primary neuronal cultures (PNCs) were treated with vehicle or semaglutide (10 nM, 100 nM, 1 μM; see FIG. 19). Cells were plated on in vitro day 0 and dosed with drug-containing media on DIV3 and DIV5. Analysis occurred on DIV7. Concentrations of drug are shown on the x-axis above each image column; genotypes are shown to the left of each row. […] Increasing concentrations of AF38469 are shown along the x-axis.

[1] = system: tripeptidyl peptidase 1 (TPP1); assay: TPP1 enzyme activity in MEF lysates; format: cell-based, mouse
Method: Treatment with AF38469 increases PPT1 and TPP1 enzyme activity in Batten disease mouse embryonic fibroblasts. Since AF38469 increases the expression of lysosomal genes including the PPT1 and TPP1 enzymes, we asked whether AF38469 increases the overall activity levels of these enzymes in cellulo. Wild type (WT) and mutant cells were treated with vehicle or AF38469 (40 nM). Cells were plated on day 0 and dosed with drug-containing media on DIV3 and DIV5. Cells were lysed, and protein quantification and enzyme activity assay were performed on DIV7. Data was analyzed with GraphPad Prism™. Two-way ANOVA. Mean±S.E.M. Tukey's multiple comparisons test. *p<0.05, **p<0.01, ***p<0.001, ****p<0.0001. Palmitoyl-protein thioesterase 1 (PPT1) is the lysosomal enzyme mutated in CLN1 disease and removes thioester-linked fatty acyl groups from modified cysteines of substrate proteins. Tripeptidyl peptidase 1 (TPP1) is the lysosomal enzyme mutated in CLN2 disease and has broad substrate specificity against various proteins degraded in the lysosome after cleavage.
Since LM11A-31 stimulates the nuclear translocation of transcription factors responsible for lysosome biogenesis, we asked whether LM11A-31 increases the overall activity levels of lysosomalenzymes in cellulo. […] Wild type (WT) and mutant cells were treated with vehicle or LM11A-31 (100 nM). Cells were plated on day 0 and dosed with drug-containing media on DIV3 and DIV5. Cells were lysed, and protein quantification and enzyme activity assay were performed on DIV7. Data was analyzed with GraphPad Prism™. Two-way ANOVA. Mean±S.E.M. Tukey's multiple comparisons test. *p<0.05, **p<0.01, ***p<0.001, ****p<0.0001. […] Palmitoyl-protein thioesterase 1 (PPT1) is the lysosomal enzyme mutated in CLN1 disease and removes thioester-linked fatty acyl groups from modified cysteines of substrate proteins. Tripeptidyl peptidase 1 (TPP1) is the lysosomal enzyme mutated in CLN2 disease and has broad substrate specificity against various proteins degraded in the lysosome after cleavage. Mutations in the CTSD gene, encoding cathepsin d, a lysosomal protease that is involved in the recycling and degradation, is a known cause of Cln10 disease.
Since semaglutide improves lysosomal health and function across diverse cell models of lysosomal storage disorder, we asked whether the function of the lysosomes was improved. […] Additionally, a combination of semaglutide and AF38469, a sortilin inhibitor, increased overall levels of activity for both enzymes in cell lysates. Wild type (WT) and mutant cells were treated with vehicle or semaglutide (100 nM) or AF38469 (40 nM) and semaglutide (100 nM). Cells were plated on in vitro day 0 and dosed with drug-containing media on DIV3 and DIV5. Cells were lysed, and protein quantification and enzyme activity assay were performed on DIV7. Data was analyzed with GraphPad Prism™. Two-way ANOVA. Mean±S.E.M. Tukey's multiple comparisons test. *p<0.05, **p<0.01, ***p<0.001, ****p<0.0001. […] (FIG. 20A). […] Levels of TPP1 enzyme activity in Cln2^R207X were not altered by treatment of semaglutide, as was expected given the lack of a functional TPP1 protein in this model (FIG. 20B). […] Levels of TPP1 enzyme activity in Cln2^R207X were not altered by treatment of AF38469 and semaglutide, as was expected given the lack of a functional TPP1 protein in this model. n=5 wells per treatment (FIG. 20D).

Compound: Cc1cccc(NC(=O)c2ccc(C(F)(F)F)cc2C(=O)O)n1 [AF38469, 2-((6-methylpyridin-2-yl)carbamoyl)-5-(trifluoromethyl)benzoic acid]
LysoTracker signal (NCL PNCs; 40 nM and 400 nM, Cln2^R207X PNCs): had no impact
LysoTracker signal (NCL PNCs; 40 nM, 400 nM, 4 μM, Cln1^R151X and Cln6^nclf PNCs, DIV7): significantly reduced
LysoTracker signal (NCL PNCs; 40 nM, Cln3^Δex7/8 PNCs): significantly increased
LysoTracker signal (NCL PNCs; 40 nM, Cln8^mnd PNCs): significantly increased
LysoTracker signal (NCL PNCs; 400 nM, Cln3^Δex7/8 PNCs): significantly reduced
LysoTracker signal (NCL PNCs; 400 nM, Cln8^mnd PNCs): significantly increased
LysoTracker signal (NCL PNCs; 4 μM, Cln2^R207X PNCs): significantly reduced
LysoTracker signal (NCL PNCs; 4 μM, Cln3^Δex7/8 PNCs): had no impact
LysoTracker signal (NCL PNCs; 4 μM, Cln8^mnd PNCs): had no impact
TPP1 enzyme activity ([1]; AF38469 40 nM, Cln2^R207X MEFs): not altered
TPP1 enzyme activity ([1]; AF38469 40 nM, wild type, Cln3^Δex7/8, Cln6^nclf, Cln11^−/− MEFs, DIV7): increased the overall levels of activity; also recorded: significantly increased

TPP1 enzyme activity ([1]; LM11A-31 100 nM, wild type and Cln3^Δex7/8 MEFs, DIV7): significantly increased
Compound: CC[C@H](C)[C@H](N)C(=O)NCCN1CCOCC1 [LM11A-31, N-[2-(morpholin-4-yl)ethyl]-L-isoleucinamide]
LysoTracker signal (NCL PNCs; LM11A-31 100 nM, Cln2^R207X PNCs): significantly reduced
LysoTracker signal (NCL PNCs; LM11A-31 1 μM, Cln6^nclf PNCs): significantly reduced

TPP1 enzyme activity ([1]; semaglutide 100 nM, Cln2^R207X MEFs): not altered
TPP1 enzyme activity ([1]; semaglutide 100 nM, wild type, Cln3^Δex7/8 MEFs, DIV7): significantly increased
Compound: semaglutide
Lysotracker signal (as printed, FIG. 19B) (NCL PNCs; semaglutide 10 nM, 100 nM, 1 μM, Cln2^R207X and Cln6^nclf PNCs): significantly reduced
LysoTracker signal (NCL PNCs; semaglutide 10 nM, 100 nM, 1 μM, Cln3^Δex7/8 PNCs): had no impact
LysoTracker signal (NCL PNCs; semaglutide 10 nM, 100 nM, 1 μM, Cln6^nclf and Cln8^mnd PNCs): significantly reduced
LysoTracker signal (NCL PNCs; semaglutide 10 nM, 1 μM, Cln2^R207X PNCs): significantly reduced
LysoTracker signal (NCL PNCs; semaglutide 10 nM, Cln1^R151X PNCs): significantly elevated
LysoTracker signal (NCL PNCs; semaglutide 100 nM, 1 μM, Cln1^R151X PNCs): significantly reduced
LysoTracker signal (NCL PNCs; semaglutide 100 nM, Cln2^R207X PNCs): significantly elevated
